Biological target: GLP-1 Receptor (Homo sapiens, UniProt P43220)
Assay: GLP-1R agonist cAMP stimulation assay (HEK293/GLP1R/CRE-LUC cells, cAMP dynamic 2 Kit)
Format: cell-based
Details: HEK293/CRE-Luc cell line stably expressing the GLP-1 Receptor, 30 min at 37° C.
Method in brief: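 HEK293 cells stably expressing human GLP-1R with CRE-luciferase, 1000 cells/well in DPBS with 0.5 mM IBMX and 0.1% BSA, treated with compound in 1/2-log serial dilution for 30 min at 37 °C. cAMP then detected by HTRF (cAMP-d2 plus anti-cAMP cryptate), 1 h at room temperature in the dark.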

GLP-1 Receptor, sequence (P43220 24-463, species assumed): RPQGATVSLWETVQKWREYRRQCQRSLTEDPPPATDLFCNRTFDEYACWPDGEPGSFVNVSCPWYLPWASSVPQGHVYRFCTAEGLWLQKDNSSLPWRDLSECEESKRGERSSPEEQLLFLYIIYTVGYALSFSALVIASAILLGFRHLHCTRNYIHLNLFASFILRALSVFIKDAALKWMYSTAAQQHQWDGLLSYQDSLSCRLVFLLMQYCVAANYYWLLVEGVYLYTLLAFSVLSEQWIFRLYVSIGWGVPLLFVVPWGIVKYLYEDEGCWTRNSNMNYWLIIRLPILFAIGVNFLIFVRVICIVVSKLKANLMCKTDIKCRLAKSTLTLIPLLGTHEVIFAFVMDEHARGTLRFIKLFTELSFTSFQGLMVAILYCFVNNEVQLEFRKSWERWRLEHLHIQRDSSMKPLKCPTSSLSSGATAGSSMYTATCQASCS

SMILES | EC50 [nM]
O=C(O)c1ccc2c(c1)nc(CN1CCC(c3cccc(OCc4ccc(Cl)cc4F)n3)CC1)n2C[C@@H]1CCO1 [Compound 213a, 2-[(4-{6-[(4-chloro-2-fluorophenyl)methoxy]pyridin-2-yl}piperidin-1-yl)methyl]-1-{[(2S)-oxetan-2-yl]methyl}-1H-1,3-benzodiazole-5-carboxylic acid] | 0.83
O=C(O)c1c[nH]nc1-c1ccc2c(c1)nc(CN1CCC(c3cccc(OCc4ccc(Cl)cc4F)n3)CC1)n2C[C@@H]1CCO1 [Compound 214a, 3-{2-[(4-{6-[(4-chloro-2-fluorophenyl)methoxy]pyridin-2-yl}piperidin-1-yl)methyl]-1-{[(2S)-oxetan-2-yl]methyl}-1H-1,3-benzodiazol-5-yl}-1H-pyrazole-4-carboxylic acid] | 4.2
Fc1cc(Cl)ccc1COc1cccc(C2CCN(Cc3nc4cc(-c5ccn[nH]5)ccc4n3C[C@@H]3CCO3)CC2)n1 [Compound 215a, 2-[(4-{6-[(4-chloro-2-fluorophenyl)methoxy]pyridin-2-yl}piperidin-1-yl)methyl]-1-{[(2S)-oxetan-2-yl]methyl}-5-(1H-pyrazol-5-yl)-1H-1,3-benzodiazole] | 2.7
Fc1cc(Cl)ccc1COc1cccc(C2CCN(Cc3nc4cc(-c5ccn(C6CCCOC6)n5)ccc4n3C[C@@H]3CCO3)CC2)n1 (stereo partly drawn) [Compound 216a, 2-[(4-{6-[(4-chloro-2-fluorophenyl)methoxy]pyridin-2-yl}piperidin-1-yl)methyl]-5-[1-(oxan-3-yl)-1H-pyrazol-3-yl]-1-{[(2S)-oxetan-2-yl]methyl}-1H-1,3-benzodiazole] | 8.8
Fc1cc(Cl)ccc1COc1cccc(C2CCN(Cc3nc4cc(/C=C/c5cccnc5)ccc4n3C[C@@H]3CCO3)CC2)n1 [Compound 217a, 2-[(4-{6-[(4-chloro-2-fluorophenyl)methoxy]pyridin-2-yl}piperidin-1-yl)methyl]-1-{[(2S)-oxetan-2-yl]methyl}-5-[(E)-2-(pyridin-3-yl)ethenyl]-1H-1,3-benzodiazole] | 4.6
CC1(c2ccc(Cl)cc2F)Oc2cccc(C3CCN(Cc4nc5cc(-c6n[nH]c(=O)o6)ccc5n4C[C@@H]4CCO4)CC3)c2O1 (stereo partly drawn) [Compound 219a, 5-[2-({4-[2-(4-chloro-2-fluorophenyl)-2-methyl-2H-1,3-benzodioxol-4-yl]piperidin-1-yl}methyl)-1-{[(2S)-oxetan-2-yl]methyl}-1H-1,3-benzodiazol-5-yl]-2,3-dihydro-1,3,4-oxadiazol-2-one] | 1.6
Cn1nc(-c2ccc3c(c2)nc(CN2CCC(c4cccc5c4OC(C)(c4ccc(Cl)cc4F)O5)CC2)n3C[C@@H]2CCO2)oc1=O (stereo partly drawn) [Compound 220a, 5-[2-({4-[2-(4-chloro-2-fluorophenyl)-2-methyl-2H-1,3-benzodioxol-4-yl]piperidin-1-yl}methyl)-1-{[(2S)-oxetan-2-yl]methyl}-1H-1,3-benzodiazol-5-yl]-3-methyl-2,3-dihydro-1,3,4-oxadiazol-2-one] | 2.8
CC1(c2ccc(Cl)cc2F)Oc2cccc(C3CCN(Cc4nc5cc(-c6n[nH]c(=O)s6)ccc5n4C[C@@H]4CCO4)CC3)c2O1 (stereo partly drawn) [Compound 221a, 5-[2-({4-[2-(4-chloro-2-fluorophenyl)-2-methyl-2H-1,3-benzodioxol-4-yl]piperidin-1-yl}methyl)-1-{[(2S)-oxetan-2-yl]methyl}-1H-1,3-benzodiazol-5-yl]-2,3-dihydro-1,3,4-thiadiazol-2-one] | 7.4
CC1(c2ccc(Cl)cc2F)Oc2cccc(C3CCN(Cc4nc5cc(-c6noc(=O)[nH]6)c(F)cc5n4C[C@@H]4CCO4)CC3)c2O1 (stereo partly drawn) [Compound 222a, 3-[2-({4-[2-(4-chloro-2-fluorophenyl)-2-methyl-2H-1,3-benzodioxol-4-yl]piperidin-1-yl}methyl)-6-fluoro-1-{[(2S)-oxetan-2-yl]methyl}-1H-1,3-benzodiazol-5-yl]-4,5-dihydro-1,2,4-oxadiazol-5-one] | 0.55
COCCn1c(CN2CCC(c3cccc4c3OC(C)(c3ccc(Cl)cc3F)O4)CC2)nc2cc(-c3noc(=O)[nH]3)ccc21 (centres unmarked) [Compound 230a, 3-(2-((4-(2-(4-chloro-2-fluorophenyl)-2-methylbenzo[d][1,3]dioxol-4-yl)piperidin-1-yl)methyl)-1-(2-methoxyethyl)-1H-benzo[d]imidazol-5-yl)-1,2,4-oxadiazol-5(4H)-one] | 0.88
Cn1cc(-c2ccc3c(c2)nc(CN2CCC(c4cccc5c4OC(C)(c4ccc(Cl)cc4F)O5)CC2)n3C[C@@H]2CCO2)cn1 (stereo partly drawn) [Compound 233a, 2-((4-(2-(4-chloro-2-fluorophenyl)-2-methylbenzo[d][1,3]dioxol-4-yl)piperidin-1-yl)methyl)-5-(1-methyl-1H-pyrazol-4-yl)-1-(((S)-oxetan-2-yl)methyl)-1H-benzo[d]imidazole] | 4
CC1(c2ccc(Cl)cc2F)Oc2cccc(C3CCN(Cc4nc5cc(-c6cn[nH]c6)ccc5n4C[C@@H]4CCO4)CC3)c2O1 (stereo partly drawn) [Compound 234a, 2-((4-(2-(4-chloro-2-fluorophenyl)-2-methylbenzo[d][1,3]dioxol-4-yl)piperidin-1-yl)methyl)-1-(((S)-oxetan-2-yl)methyl)-5-(1H-pyrazol-4-yl)-1H-benzo[d]imidazole] | 3.7
Cc1cnc(-c2ccc3c(c2)nc(CN2CCC(c4cccc5c4O[C@@](C)(c4ccc(Cl)cc4F)O5)CC2)n3C[C@@H]2CCO2)nc1 [Compound 236a, 2-((4-((S)-2-(4-chloro-2-fluorophenyl)-2-methylbenzo[d][1,3]dioxol-4-yl)piperidin-1-yl)methyl)-5-(5-methylpyrimidin-2-yl)-1-(((S)-oxetan-2-yl)methyl)-1H-benzo[d]imidazole] | 2
Cc1ncc(-c2ccc3c(c2)nc(CN2CCC(c4cccc5c4OC(C)(c4ccc(Cl)cc4F)O5)CC2)n3C[C@@H]2CCO2)cn1 (stereo partly drawn) [Compound 237a, 2-((4-(2-(4-chloro-2-fluorophenyl)-2-methylbenzo[d][1,3]dioxol-4-yl)piperidin-1-yl)methyl)-5-(2-methylpyrimidin-5-yl)-1-(((S)-oxetan-2-yl)methyl)-1H-benzo[d]imidazole] | 9.1

Stronger by EC50, values ahead:

EC50 [nM] | SMILES
0.013 | CC1(c2ccc(Cl)cc2F)Oc2cccc(C3CCN(Cc4nc5cc(-c6nnn[nH]6)ncc5n4C[C@@H]4CCO4)CC3)c2O1 (stereo partly drawn) [Compound 218a, 4-[2-(4-chloro-2-fluorophenyl)-2-methyl-2H-1,3-benzodioxol-4-yl]-1-[(3-{[(2S)-oxetan-2-yl]methyl}-6-(1H-1,2,3,4-tetrazol-5-yl)-3H-imidazo[4,5-c]pyridin-2-yl)methyl]piperidine]
0.12 | CC1(c2ccc(Cl)cc2F)Oc2cccc(C3CCN(Cc4nc5cc(-c6nnn[nH]6)c(F)cc5n4C[C@@H]4CCO4)CC3)c2O1 (stereo partly drawn) [Compound 223a, 2-({4-[2-(4-chloro-2-fluorophenyl)-2-methyl-2H-1,3-benzodioxol-4-yl]piperidin-1-yl}methyl)-6-fluoro-1-{[(2S)-oxetan-2-yl]methyl}-5-(1H-1,2,3,4-tetrazol-5-yl)-1H-1,3-benzodiazole]
0.064 | CC1(c2ccc(Cl)cc2)Oc2cccc(C3CCN(Cc4nc5cc(-c6nnc(C(F)(F)F)[nH]6)cnc5n4C[C@@H]4CCO4)CC3)c2O1 (stereo partly drawn) [Compound 225a, 4-[2-(4-chlorophenyl)-2-methyl-2H-1,3-benzodioxol-4-yl]-1-[(3-{[(2S)-oxetan-2-yl]methyl}-6-[5-(trifluoromethyl)-4H-1,2,4-triazol-3-yl]-3H-imidazo[4,5-b]pyridin-2-yl)methyl]piperidine]
0.13 | CC1(c2ccc(Cl)cc2)Oc2cccc(C3CCN(Cc4nc5cc(-c6nnc(C(F)(F)F)[nH]6)ccc5n4C[C@@H]4CCO4)CC3)c2O1 (stereo partly drawn) [Compound 226a, 2-({4-[2-(4-chlorophenyl)-2-methyl-2H-1,3-benzodioxol-4-yl]piperidin-1-yl}methyl)-1-{[(2S)-oxetan-2-yl]methyl}-5-[5-(trifluoromethyl)-4H-1,2,4-triazol-3-yl]-1H-1,3-benzodiazole]
0.094 | CC1(c2ccc(Cl)cc2F)Oc2cccc(C3CCN(Cc4nc5cc(-c6nnc(C(F)F)[nH]6)ccc5n4C[C@@H]4CCO4)CC3)c2O1 (stereo partly drawn) [Compound 227a, 2-({4-[2-(4-chloro-2-fluorophenyl)-2-methyl-2H-1,3-benzodioxol-4-yl]piperidin-1-yl}methyl)-5-[5-(difluoromethyl)-4H-1,2,4-triazol-3-yl]-1-{[(2S)-oxetan-2-yl]methyl}-1H-1,3-benzodiazole]
0.19 | CC1(c2ccc(Cl)cc2F)Oc2cccc(C3CCN(Cc4nc5cc(-c6cn(CCO)nn6)ccc5n4C[C@@H]4CCO4)CC3)c2O1 (stereo partly drawn) [Compound 228a, 2-{4-[2-({4-[2-(4-chloro-2-fluorophenyl)-2-methyl-2H-1,3-benzodioxol-4-yl]piperidin-1-yl}methyl)-1-{[(2S)-oxetan-2-yl]methyl}-1H-1,3-benzodiazol-5-yl]-1H-1,2,3-triazol-1-yl}ethan-1-ol]
0.031 | CC1(c2ccc(Cl)cc2F)Oc2cccc(C3CCN(Cc4nc5cc(-c6noc(=O)[nH]6)ccc5n4CC4(C#N)CC4)CC3)c2O1 (centres unmarked) [Compound 231a, 1-((2-((4-(2-(4-chloro-2-fluorophenyl)-2-methylbenzo[d][1,3]dioxol-4-yl)piperidin-1-yl)methyl)-5-(5-oxo-4,5-dihydro-1,2,4-oxadiazol-3-yl)-1H-benzo[d]imidazol-1-yl)methyl)cyclopropane-1-carbonitrile]
0.16 | CC1(c2ccc(Cl)cc2F)Oc2cccc(C3CCN(Cc4nc5cc(-c6nnn[nH]6)ccc5n4C[C@@H]4CCO4)CC3)c2O1 (stereo partly drawn) [Compound 232a, 2-((4-(2-(4-chloro-2-fluorophenyl)-2-methylbenzo[d][1,3]dioxol-4-yl)piperidin-1-yl)methyl)-1-(((S)-oxetan-2-yl)methyl)-5-(1H-tetrazol-5-yl)-1H-benzo[d]imidazole]
0.062 | CC1(c2ccc(Cl)cc2F)Oc2cccc(C3CCN(Cc4nc5cc(NC(=O)c6cccnc6)ccc5n4C[C@@H]4CCO4)CC3)c2O1 (stereo partly drawn) [Compound 235a, N-(2-((4-(2-(4-chloro-2-fluorophenyl)-2-methylbenzo[d][1,3]dioxol-4-yl)piperidin-1-yl)methyl)-1-(((S)-oxetan-2-yl)methyl)-1H-benzo[d]imidazol-5-yl)nicotinamide]
